A value given as a limit tells only on which side of the number the result lay.

What all share (format): cell-based, human
One experiment concerns Target C. Nature of the experiment: HiBiT protein abundance assay, Target C. The conditions noted are these: Table 13A, modified K562 cells. In a few lines:
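HiBiT knock-in K562-derived cells, 10000 cells/well, were treated 24 h at 37 °C with a 10-point 3-fold dilution series (top 10 μM final, DMSO ≤0.25%). Lytic HiBiT luminescence was normalized to unmodified K562 and DMSO controls; IC50 was interpolated at 50% from a four-parameter logistic fit.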
(With HiBiT, luminescence reflects the tagged protein that the partner subunit can reach.)

Another experiment relates to HTT. In words: HiBiT protein abundance assay, HTT. The conditions noted are these: Homo sapiens, K562, 24 h, Table 13A, modified K562 cells. In short, it runs like this: (§1)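 K562 cells with endogenous HiBiT-tagged target were treated 24 h at 37 °C with compound (10-point 3-fold dilution, top 10 μM final, DMSO ≤0.25%). Lytic LgBiT luminescence was normalized to unmodified K562 (baseline) and DMSO-treated tagged cells; IC50 interpolated at 50% from four-parameter logistic fit.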

The subject of experiment [1] is MYB. Nature of the experiment: Splicing RT-qPCR assay, MYB mRNA canonical junction (CJ) and alternative junction (AJ). The conditions noted are these: for AC50: increase in AJ mRNA. In a few lines: (§2)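 First, A673 cells adhered 24 h, while K562 cells were plated directly. Next, compounds were added as an 11-point 3-fold series from 10 uM for 24 h. Finally, lysates went to RT-qPCR, with 2^(−ΔΔCt) values converted to percentage response.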
(In general: Real-time PCR tracks product formation cycle by cycle.)

In the next experiment the test system is SMN2. In words: Splicing RT-qPCR panel, SMN2 canonical junction (CJ) mRNA. The conditions noted are these: Homo sapiens, RT-qPCR panel, canonical junction mRNA; compound concentration having 50% response in CJ decrease; read-out: SMN2 IC50 (decrease in CJ mRNA levels). In a few lines:
as §2

Experiment [2] relates to MYB. In words: HiBiT protein abundance assay, MYB. The following applies: Table 13A, modified K562 cells. In short, it runs like this: as §1
The mark [3] stands for this setting: Homo sapiens, 24 h, decrease in CJ mRNA, A673 or K562 cells, 24 hours treatment, RT-qPCR, read-out: MYB CJ IC50.
The mark [4] stands for this setting: Homo sapiens, 24 h, A673 or K562 cells, 24 hours treatment, RT-qPCR.
Setting [5] is: Homo sapiens, RT-qPCR panel, canonical junction mRNA, compound concentration having 50% response in CJ decrease, read-out: MYB IC50 (decrease in CJ mRNA levels).

As usually defined, the IC50 is the concentration that gives 50% inhibition. Usually AC50 stands for the concentration at which the activity in the assay is half-maximal. On to `CN(c1ccc(-c2ccc(-c3cnn(C)c3)c3cn[nH]c23)nn1)C1CCNCC1` [Compound 242], for which the concentration for half-maximal inhibition (IC50) was more than 10000 nM in the experiment with Target C (Homo sapiens, K562, 24 h); 1000 to 10000 nM in the experiment on HTT; more than 10000 nM in the experiment with MYB [1] (setting [3]); more than 10000 nM in the experiment on MYB [1] (setting [5]); 1000 to 10000 nM in the experiment with SMN2; 1000 to 10000 nM with MYB [2] (Homo sapiens, K562, 24 h). Also, the AC50 with MYB [1] (setting [4]) is more than 10000 nM.
Consider `CN(c1ccc(-c2cc(F)c(-c3cnn(C)c3)c3cn[nH]c23)nn1)[C@@H]1C[C@H]2CC[C@@H](C1)N2` [Compound 291], for which the IC50 in the experiment with Target C (Homo sapiens, K562, 24 h) was less than 100 nM; in the experiment on HTT it was less than 100 nM; in the experiment on MYB [1] (setting [3]), less than 100 nM; with MYB [1] (setting [5]) it was less than 100 nM; with SMN2, less than 100 nM; in the experiment on MYB [2] (Homo sapiens, K562, 24 h), less than 100 nM. The AC50 in the experiment with MYB [1] (setting [4]) was less than 100 nM.
In the case of `c1n[nH]cc1-c1ccc(-c2ccc(N[C@@H]3C[C@H]4CCC[C@@H](C3)N4)nn2)c2[nH]ncc12` [Compound 294], the IC50 was 100 to 1000 nM in the experiment on Target C (Homo sapiens, K562, 24 h); 100 to 1000 nM with HTT; 100 to 1000 nM in the experiment on MYB [1] (setting [3]); 100 to 1000 nM in the experiment on MYB [1] (setting [5]); less than 100 nM in the experiment with SMN2; 100 to 1000 nM in the experiment on MYB [2] (Homo sapiens, K562, 24 h). The compound further returned a half-maximal activity concentration (AC50) in the experiment with MYB [1] (setting [4]) of 100 to 1000 nM.
As to `CC1(C)CC(Oc2ccc(-c3cc(F)c(-c4cn[nH]c4)c4cn[nH]c34)nn2)CC(C)(C)N1` [Compound 307], the half-maximal inhibitory concentration (IC50) in the experiment with Target C (Homo sapiens, K562, 24 h) is 100 to 1000 nM; in the experiment with HTT it was less than 100 nM; in the experiment with MYB [1] (setting [3]), 100 to 1000 nM; in the experiment on MYB [1] (setting [5]) it was 100 to 1000 nM; with SMN2 it was less than 100 nM; in the experiment on MYB [2] (Homo sapiens, K562, 24 h) it was 100 to 1000 nM. The compound further displayed an AC50 in the experiment with MYB [1] (setting [4]) of 1000 to 10000 nM.
For the compound `c1nc2c(-c3cn[nH]c3)ccc(-c3ccc(N(C4CC4)C4C[C@H]5CCC[C@@H](C4)N5)nn3)c2s1` (stereo partly shown) [Compound 311], the concentration for half-maximal inhibition (IC50) in the experiment with Target C (Homo sapiens, K562, 24 h) was less than 100 nM; in the experiment with HTT it was 100 to 1000 nM; in the experiment with MYB [1] (setting [3]), 100 to 1000 nM; in the experiment on MYB [1] (setting [5]), 100 to 1000 nM; in the experiment with SMN2, less than 100 nM; in the experiment on MYB [2] (Homo sapiens, K562, 24 h), 100 to 1000 nM. For the same compound, the AC50 in the experiment with MYB [1] (setting [4]) was in the range of 100 to 1000 nM.
For the compound `Fc1cc(-c2ccc(OC3CC4CC(F)(F)C(C3)N4)nn2)c2[nH]ncc2c1-c1cn[nH]c1` (stereo not shown) [Compound 313, 7-[6-({6,6-difluoro-8-azabicyclo[3.2.1]octan-3-yl}oxy)pyridazin-3-yl]-5-fluoro-4-(1H-pyrazol-4-yl)-1H-indazole], the concentration for half-maximal inhibition (IC50) in the experiment with Target C (Homo sapiens, K562, 24 h) was 100 to 1000 nM; in the experiment with HTT, 100 to 1000 nM; in the experiment with MYB [1] (setting [3]), 100 to 1000 nM; with MYB [1] (setting [5]), 100 to 1000 nM; in the experiment on SMN2, less than 100 nM; in the experiment with MYB [2] (Homo sapiens, K562, 24 h), 100 to 1000 nM. The compound also came in with an AC50 in the experiment with MYB [1] (setting [4]) of 100 to 1000 nM.
`Fc1cc(-c2ccc(O[C@@H]3C[C@H]4CC[C@@H](C3)N4)nn2)c2sncc2c1-c1cn[nH]c1` [Compound 327]: the IC50 in the experiment with Target C (Homo sapiens, K562, 24 h) was less than 100 nM; in the experiment on HTT it was less than 100 nM; in the experiment with MYB [1] (setting [3]), less than 100 nM; in the experiment on MYB [1] (setting [5]), less than 100 nM; in the experiment on SMN2, less than 100 nM; in the experiment on MYB [2] (Homo sapiens, K562, 24 h), less than 100 nM. The same compound registered a concentration at half-maximal activity (AC50) in the experiment with MYB [1] (setting [4]) of less than 100 nM.
As for `COc1cc(-c2ccc(-c3ccc(N(C)C4CC(C)(C)NC(C)(C)C4)nn3)c3scnc23)cnn1` [Compound 330], the concentration for half-maximal inhibition (IC50) in the experiment on Target C (Homo sapiens, K562, 24 h) is less than 100 nM; in the experiment on HTT it was less than 100 nM; in the experiment with MYB [1] (setting [3]) it was 100 to 1000 nM; in the experiment on MYB [1] (setting [5]), 100 to 1000 nM; in the experiment on SMN2, less than 100 nM; in the experiment with MYB [2] (Homo sapiens, K562, 24 h), 100 to 1000 nM. In the experiment with MYB [1] (setting [4]), this compound came in with an AC50 of 100 to 1000 nM.
In the case of `CC(C)(C)NC1CCN(c2ccc(-c3ccc(-c4cn[nH]c4)c4ncsc34)nn2)C1` (stereo not shown) [Compound 336], the IC50 is 100 to 1000 nM in the experiment with Target C (24 hours); less than 100 nM with HTT; 100 to 1000 nM in the experiment with MYB [1] (RT-qPCR panel, canonical junction mRNA, compound concentration having 50% response in CJ decrease, read-out: MYB IC50 (decrease in CJ mRNA levels)); 100 to 1000 nM with MYB [1] (decrease in CJ mRNA, A673 or K562 cells, 24 hours treatment, RT-qPCR, read-out: MYB CJ IC50); less than 100 nM in the experiment with SMN2; 100 to 1000 nM with MYB [2] (24 hours).
Turning to `c1nc2c(-c3cn[nH]c3)ccc(-c3ccc(N4CCC(NC5CC5)C4)nn3)c2s1` (stereo not shown) [Compound 337], the half-maximal inhibitory concentration (IC50) with Target C (Homo sapiens, K562, 24 h) is more than 10000 nM; in the experiment on HTT it was 1000 to 10000 nM; in the experiment on MYB [1] (setting [3]), more than 10000 nM; in the experiment with MYB [1] (setting [5]) it was more than 10000 nM; with SMN2, 100 to 1000 nM; in the experiment with MYB [2] (Homo sapiens, K562, 24 h) it was 100 to 1000 nM. Also, the AC50 with MYB [1] (setting [4]) was more than 10000 nM.
As for `Fc1cc(-c2ccc(N[C@@H]3C[C@H]4CC[C@@H](C3)N4)nn2)c2scnc2c1-c1cn[nH]c1` [Compound 339], the 50% inhibitory concentration (IC50) in the experiment on Target C (Homo sapiens, K562, 24 h) is less than 100 nM; in the experiment on HTT it was less than 100 nM; in the experiment with MYB [1] (setting [3]) it was less than 100 nM; in the experiment with MYB [1] (setting [5]), less than 100 nM; in the experiment on SMN2, less than 100 nM; in the experiment with MYB [2] (Homo sapiens, K562, 24 h) it was less than 100 nM. The half-maximal activity concentration (AC50) in the experiment with MYB [1] (setting [4]) is less than 100 nM.

The values above are taken from patent US20240368163A1, “COMPOUNDS AND METHODS FOR MODULATING SPLICING” (REMIX THERAPEUTICS INC., priority 2021, published 2024).
